Reference: ChEMBL document CHEMBL1137977, “HCV NS5B polymerase-bound conformation of a soluble sulfonamide inhibitor by 2D transferred NOESY” (Bioorg Med Chem Lett, 2004)

These compounds were tested against RNA-directed RNA polymerase (Hepacivirus hominis, UniProt O39930) (assay: Inhibitory concentration for NS5B RNA-dependent RNA polymerase of Hepatitis C virus).
Chain of RNA-directed RNA polymerase (O39930 whole entry): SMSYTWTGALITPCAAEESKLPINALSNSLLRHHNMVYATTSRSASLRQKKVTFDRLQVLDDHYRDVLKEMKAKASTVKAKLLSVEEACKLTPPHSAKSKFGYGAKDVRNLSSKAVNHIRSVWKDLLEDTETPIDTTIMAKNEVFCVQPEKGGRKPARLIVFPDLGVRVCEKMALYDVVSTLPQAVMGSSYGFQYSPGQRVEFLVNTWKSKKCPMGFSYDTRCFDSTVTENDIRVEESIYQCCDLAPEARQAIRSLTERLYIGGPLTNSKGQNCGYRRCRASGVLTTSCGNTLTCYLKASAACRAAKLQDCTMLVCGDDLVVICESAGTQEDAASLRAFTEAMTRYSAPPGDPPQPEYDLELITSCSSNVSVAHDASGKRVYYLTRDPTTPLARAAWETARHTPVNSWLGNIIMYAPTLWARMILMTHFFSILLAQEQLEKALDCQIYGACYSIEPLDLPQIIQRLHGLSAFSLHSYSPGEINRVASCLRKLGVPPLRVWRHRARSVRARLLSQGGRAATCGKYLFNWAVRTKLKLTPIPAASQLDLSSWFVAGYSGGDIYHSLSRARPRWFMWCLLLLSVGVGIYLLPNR

SMILES | IC50
Cc1cc(S(=O)(=O)Nc2cc(-c3ccccc3)sc2C(=O)O)c(C)cc1Cl | 5 µM
Cc1ccccc1S(=O)(=O)Nc1cc(-c2ccncc2)sc1C(=O)O | 4 µM
O=C(O)c1sc(-c2ccccc2)cc1NS(=O)(=O)c1ccc(C(F)(F)F)cn1 | 15 µM

Continued by falling IC50, values first:

IC50 | SMILES
25 µM | O=C(O)c1sc(-c2ccccc2)cc1NS(=O)(=O)c1ccccn1
14 µM | Cc1cc(S(=O)(=O)Nc2cc(-c3ccccc3)sc2C(N)=O)c(C)cc1Cl
4 µM | O=C(O)c1sc(-c2ccc(F)cc2)cc1NS(=O)(=O)c1ccccn1
